Results on 1 compound are retold here after patent EP0597029B1, “W/O MICROEMULSIONS” (SMITHKLINE BEECHAM CORPORATION, priority 1991, dated 1993).

For data set [1] the following is noted: value in parentheses, from the CRC Handbook of Chemistry and Physics, 60th Edition; cited from earlier work.
A short description of data set [2]: Refractive index of microemulsions. Conditions: aqueous phase = water; oil plus low HLB surfactant (3:1, 87%), high HLB surfactant (10%), aqueous (3%). The class given is physicochemical. The text has this: (§1) All the microemulsions had oil plus low HLB surfactant (3:1, 87%), high HLB surfactant (10%) and aqueous (3%).
Data set [3] can be described thus: Viscosity of microemulsions. Format: physicochemical. Conditions: aqueous phase = water; oil plus low HLB surfactant (3:1, 87%), high HLB surfactant (10%), aqueous (3%).
Text: as §1

The conditions of data set [4]: value in parentheses, from the CRC Handbook of Chemistry and Physics, 60th Edition; cited from earlier work. This is another data set of the same source.

Like-named read-outs stand apart in the source and are kept apart here.

Consider `CCCCCCCC/C=C\CCCCCCCC(=O)O` [Oleic Acid], for which the Refractive index in data set [1] is 1.4583; in data set [2] it was 1.4582. In addition, the results for the Viscosity in data set [3] and in data set [4] were 23.4 centiPoise and 25.6 centiPoise, respectively.
